We go through two compounds from patent US20230285570A1, “THERAPEUTICALLY USEFUL CURE-PRO MOLECULES FOR E3 LIGASE MEDIATED DEGRADATION OF PROTEINS, AND METHODS OF MAKING AND USING THEM” (CORNELL UNIVERSITY, priority 2020, published 2023).

“Also recorded” adds a separate entry of the source.

What all share (assay type): cell-based
For data set [1], the target named is T1, BRD4 (Homo sapiens, UniProt O60885). Description: CURE-PRO-mediated BRD4 degradation in MCF7 cells, WES (ProteinSimple). Also noted: endogenous in cells. On the procedure:
WES Simple analysis was performed on WES system (ProteinSimple-Biotechne) according to the manufacturer's instructions. Total protein concentrations of cell lysates were determined by the Pierce BCA kit (Thermo Fisher). 3 μL of 0.3 μg/μL of the protein lysate was loaded onto a 12- to 230-kDa WES assay plate (ProteinSimple) where 300 nL sample was withdrawn through a capillary, subjected to electrophoretic separation of proteins by size, and followed by the simultaneous, HRP-based detection of proteins using the Anti-Rabbit Detection Module (Proteinsimple: #DM-001). The electropherograms were checked then the automatic peak detection was manually corrected if it was required.
MCF7 cells (3×10^6) were treated for 4-24 hours continually (FIG. 72), or treated for 4 h, washed and incubated for a further 4-24 h with the compounds solubilized in DMSO. Compounds were added at 10 μM each. Cells were washed, lysed, and clarified by centrifugation. The total protein concentration was quantified by the BCA method (ThermoFisher Sciences). Standardized protein samples were electrophoresed and imaged as described in the WES Proteinsimple section above. FIG. 69 depicts the CURE-PRO-mediated BRD4 degradation for the BRD-E50 monomer, and VHL ligand, 8305.
MCF7 cells (3×10^6) were treated for 24 hours with the compounds solubilized in DMSO. CURE-PRO monomers were added at 10 μM each and the proteasomal inhibitors at 1 μM. Standardized protein samples were electrophoresed and imaged as described in the WES Proteinsimple section above. FIGS. 73 and 75 depicts the dependence of the proteasome for CURE-PRO-mediated BRD4 degradation.
MCF7 cells (3×10^6) were treated for 24 hours with the compounds solubilized in DMSO. CURE-PRO monomers were added at 10 μM. FIG. 74 depicts the CURE-PRO-mediated BRD4 degradation for the BRD-E50 monomer, and VHL ligand, 8305 combined in a 1:1 ratio after 24 h.

For data set [2], the system named is HCT116 cells. Briefly: MTT toxicity of E3 ligase CURE-PRO monomers, HCT116 cells. The note with it: monomer alone, HCT116, 10 nM-30 μM, 24 h. On the procedure: CURE-PRO ligands for the E3 ubiquitin ligases were assessed for toxicity by MTT assays as described above. CURE-PRO monomers (10 nM-30 μM) were solubilized in DMSO and added in triplicate to cells (1×10^5 cells/well) seeded in 96 well plates on the previous day. HCT116 (FIG. 105A), MCF7 (FIG. 105B), and HT29 cells (FIG. 105C) were treated with the CURE-PRO monomers for 24 h.

In data set [3] the test system is caspase 3/7. Description: Caspase-Glo 3/7 assay, Namalwa cells. To be noted: 24 h. The method, then:
(§1) Caspase-glo® assay (Promega) was conducted following the manufacturer's recommendations. Cells were seeded at a density of 5000 cells/well in a white 96 well plates (Corning, #3917) in a total volume of 100 μl with respective monomers, combinations of BRD ligands together with E3 ligase ligands or vehicle control treatment. After a 24 h incubation, 100 μl of the […] substrate was added per well and luminescence was read on a Spectramax M5 (Molecular Devices).
Namalwa cells (5×10^4) were treated for 24 hours with the compounds solubilized in DMSO. FIG. 57 is a bar graph depiction of fold increase of apoptosis assessed via caspase 3/7 activity using the Caspase-Glo assay (Promega) described above.
(§2) Molm-13 (FIG. 76A) or Namalwa (FIG. 76B) cells (5×10^4) were treated for 24 hours with the compounds solubilized in DMSO in white 96 well plates (10 nM-10 μM solubilized in DMSO). FIG. 76 is a bar graph depiction of fold increase of apoptosis assessed via caspase 3/7 activity using the Caspase-Glo assay (Promega) described above.

Data set [4] relates to Molm-13 cells. Description: CellTiter-Glo cell viability, Molm-13 cells. On the procedure: CellTiter-Glo® 2.0 Cell Viability Assay (Promega) was carried out following the manufacturer's recommendations. Cells were seeded at a density of 1000 cells/well in a white 96 well plates (Corning, #3917) in a total volume of 100 μl with respective monomers, combinations of BRD ligands together with E3 ligase ligands or vehicle control treatment. After a 72 h incubation, 100 ul of the CellTiter-Glo® substrate was added per well and luminescence was read on a Spectramax M5 (Molecular Devices). Dose-response curves were generated using Graphpad Prism software.
Molm-13 cells (1×10^4) were treated for 24 (FIG. 77A) or 72 (FIG. 77B) hours were treated in white 96 well plates with the compounds (10 nM-10 μM solubilized in DMSO). After indicated times cell viability was assessed using the CellTiter-Glo® Luminescent Cell Viability Assay (Promega) and the signal detected on a SpectraMax M5 (Molecular Devices).
For orientation: ATP-based viability assays read luminescence as a measure of living cells.

Data set [5] deals with T1, BRD4. Briefly: CURE-PRO-mediated BRD4 degradation in MCF7 cells, Western blot. Also noted: endogenous in cells. The method, then: Namalwa, Ramosm HeLa, MCF7, or HT29 HCT116 cells (2.5-3×10^6) were treated for 24 hours with the indicated compounds solubilized in DMSO. The cells were washed in ice-cold PBS and were then lysed in RIPA lysis buffer (150 mM NaCl, 5 mM EDTA, 1% NP-40, 0.5% sodium deoxycholate, 0.1% SDS, 50 mM Tris, pH 8.0.) with Roche protease inhibitor complete cocktail and phosphatase inhibitors (10 mM sodium fluoride, 10 mM sodium pyrophosphate, 1 mM sodium orthovanadate and 20 mM β-glycerophosphate). The total protein concentrations were determined by Bradford Protein Assay (Pierce) and 10-20 μg of protein was loaded onto 4-15% Tris-Glycine gradient gels (Biorad). After standard gel electrophoresis, the separated proteins were transferred to PVDF membrane by wet transfer. The immunoblots were then blocked for 1 hour in 5% skim milk in TBST or 5% BSA in TBST, according to manufacturer's instructions, before an overnight incubation at 4° C. with indicated antibodies and membranes. Membranes were then incubated with the appropriate horseradish peroxidase-conjugated secondary antibodies (1:5,000 dilution) for 1 h at room temperature and the bands were visualized using the Clarity Max Western ECL Substrate (Biorad) and the ChemiDoc Imaging System (Biorad). Signal was detected with ECL Western Blotting Substrate (Pierce) and X-ray film processed with a Konica SRX-101 X-ray film processor or captured by Bio-Rad's Chemidoc Imaging system.
MCF7 cells (3×10^6) were treated for 24 h with the compounds solubilized in DMSO. Compounds were added at 100 nM-10 μM. Standardized protein samples were electrophoresed and imaged as described in the Immunoblotting section above. FIG. 69 depicts the CURE-PRO-mediated BRD4 degradation for the BRD-E9 monomer and VHL ligands 8305 combined in a 1:1 ratio, and FIG. 70 depicts the CURE-PRO-mediated BRD4 degradation for the BRD-E20 monomer and 8305.
MCF7 cells (3×10^6) were treated for 24 h with the compounds solubilized in DMSO. Compounds were added at 1 μM-10 μM. Standardized protein samples were electrophoresed and imaged as described in the Immunoblotting section above. FIG. 71 depicts the CURE-PRO-mediated BRD4 degradation for the BRD-E50 monomer and VHL ligands 8305 and 8304 combined in a 1:1 ratio.

Data set [6] deals with T1, BRD4. Description: Summary of BRD4 degradation by CURE-PRO pairs, estimated from Western Blot or WES. Also noted: endogenous in cells. The note with it: Table 3, aryl-boronic acid BRD4 ligand + 8305. The gist of the method:
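Namalwa, Ramos, HeLa, MCF7, HT29 or HCT116 cells treated 24 h with compounds in DMSO; RIPA lysates analysed by Western blot (ECL) or capillary WES immunodetection. Check mark denotes 30% to 70% or higher protein degradation.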

Data set [7] concerns caspase 3/7. Description: Caspase-Glo 3/7 assay, Molm-13 cells. The method, then:
as §1, §2

[8] abbreviates: single monomer alone, MCF7, 10 μM.

Consider `Cc1ncsc1-c1ccc(CNC(=O)[C@@H]2C[C@@H](O)CN2C(=O)[C@@H](NC(=O)c2cccc(O)c2O)C(C)(C)C)cc1` [compound 8305, (2S,4R)-1-((S)-2-(2,3-dihydroxybenzamido)-3,3-dimethylbutanoyl)-4-hydroxy-N-(4-(4-methylthiazol-5-yl)benzyl)pyrrolidine-2-carboxamide], for which the BRD4 degradation entry in data set [1] (setting [8]) was “there is no degradation of BRD4”. Further, the “loss of viability (MTT)” value in data set [2] is recorded as “loss of viability only noted at higher concentrations (30 μM); also recorded: Toxicity at higher concentrations”.

Regarding `CCNC(=O)C[C@@H]1N=C(c2ccc(Cl)cc2)c2cc(B(O)O)ccc2-n2c(C)nnc21` [BRD-E50, ((4S)-6-(4-chlorophenyl)-4-(2-(ethylamino)-2-oxoethyl)-1-methyl-4H-benzo[f][1,2,4]triazolo[4,3-a][1,4]diazepin-8-yl)boronic acid], the BRD4 degradation entry in data set [1] (1:1 with VHL ligand 8305, MCF7, 10 μM each, 4-24 h) was “directs degradation of BRD4 as early as 4 h; also recorded: marked BRD4 degradation after 4 h”; in data set [1] (co-incubated with VHL ligand 8304, MCF7, 10 μM each) it was “No degradation is noted”; in data set [1] (setting [8]), “there is no degradation of BRD4”; in data set [5] (1:1 with VHL ligand 8304, MCF7, 24 h, 1 μM-10 μM), “but not when VHL ligand 8304 is co-incubated; also recorded: no degradation is noted”; in data set [5] (1:1 with VHL ligand 8305, MCF7, 24 h, 100 nM-10 μM), “there is degradation of BRD4; also recorded: marked BRD4 degradation”. Besides, the “BRD4 degradation after VHL298 pre-incubation” value in data set [1] (with 8305, 10 μM each, VHL298 preincubated at equimolar concentration, MCF7) is given as “attenuates CURE-PRO mediated BRD4 degradation; also recorded: No degradation is noted; also recorded: inhibited CURE-PRO mediated degradation; also recorded: inhibits the degradation of BRD4”. Further, the “caspase 3/7 activation” value is given as “demonstrates activation of caspase 3/7; also recorded: marked caspase activation” in data set [3] (1:1 with VHL ligand 8305, Namalwa, 10 nM-10 μM); “does not increase caspase activity” in data set [3] (co-treated with VHL298, Namalwa); “demonstrates activation of caspase 3/7; also recorded: marked caspase activation” in data set [7] (1:1 with VHL ligand 8305, Molm-13, 24 h, 10 nM-10 μM); “does not increase caspase activity” in data set [7] (co-treated with VHL298, Molm-13, 24 h). The “loss of cell viability versus monomers alone” value in data set [4] (co-dosed 1:1 with VHL ligand 8305, Molm-13, 24 h and 72 h, 10 nM-10 μM) is recorded as “marked loss in cell viability when compared to monomer treatment alone; also recorded: a greater loss of cell viability”. In addition, the cell viability result in data set [4] (co-treated with VHL298, Molm-13, 24 h and 72 h) is on record as “decreases levels of cell viability to similar levels of BRD-E50 treatment alone”. Also, in data set [6], the “Degradation of BRD4, combination with VHL ligand 8305” value is given as “√ (A black check mark indicates efficacy of 30% to 70% or higher protein degradation)”.
